{"source": "patent US7132417B2", "about": "“2-phenyl-1-[4-(2-aminoethoxy)-benzyl]-indoles as estrogenic agents” (Wyeth, priority 1996, dated 2006)", "key": {"[1]": {"tested_on": "Ishikawa cells", "assay": "Ishikawa cell alkaline phosphatase assay", "assay_type": "cell-based, human", "conditions": "for pEC50: reference standards, read-out: ED50 values (95% C.I.), estrogenic activity by the alkaline phosphatase method; for % Activation: compound alone, percent of response related to 1 nM 17β-estradiol; for % Activation with 1 nM 17β-estradiol: compound + 1 nM 17β-estradiol (antiestrogen test)", "experimental": "Cells were treated for 48 h prior to assay. […] Sample population for at each dose was n=8. […] Plates are placed at -80° C. for a minimum of 15 minutes. Plates are thawed at 37° C. followed by the addition of 150 μL of 0.1 M Tris-HCl, pH 9.8, containing 4 mM para-nitrophenylphosphate (pNPP) to each well (final concentration, 3 mM pNPP). Absorbance and slope calculations were made using the […] Application program (Bio-Tek Instruments, Inc., Winooski, Vt.). […] The four listed in the following were used as reference standards: A description of these methods is described by Holinka, […]., Kuramoto, H. and Gurpide, E. (1986) Effects of steroid hormones and antisteroids on alkaline phosphatase activity in human endometrial cancer cells (Ishikawa Line). Cancer Research, 46:2771-2774, and by […]. and […] simple and sensitive microtiter plate estrogen bioassay based on stimulation alkaline phosphatase in Ishikawa cells; […] Endocrinology, 6:2757-2762."}, "[2]": {"tested_on": "Female Sprague Dawley CD rats, ovx", "assay": "6-week ovariectomized rat model", "assay_type": "in vivo", "conditions": "2 μg/rat, s.c., following 6 weeks of treatment, mean ± SEM", "from_the_text": "Method No. 20 6-Week Ovariectomized Rat Model\nFemale Sprague Dawley CD rats, ovx or sham ovx, were obtained 1 day after surgery from Taconic Farm (weight range 240–275 g). They were housed 3 or 4 rats/cage in a room on a 14/10 (light/dark) schedule and provided with food (Purina 500 rat chow) and water ad libitum. Treatment for all studies began 1 day after the animals arrival and dosed 5 or 7 days per week as indicated for 6 weeks. A group of age matched sham operated rats not receiving any treatment served as an intact, estrogen replete control group for each study. All treatments were prepared in 1% tween 80 in normal saline at defined concentrations so that the treatment volume was 0.1 mL/100 g body weight. 17-beta estradiol was dissolved in corn oil (20 uG/mL) and delivered subcutaneously, 0.1 mL/rat. All dosages were adjusted at three week intervals according to group mean body weight measurements.\nFive weeks after the initiation of treatment and one week prior to the termination of the study, each rat was evaluated for bone mineral density (BMD). The BMD's of the proximal tibiae (PT) and fourth lumbar vertabrae (L4) were measured in anesthetized rats using a dual energy X-ray absorptiometer (Eclipse XR-26, Norland Corp. Ft. Atkins, Wis.). […] Total cholesterol is determined using a Boehringer-Mannheim Hitachi 911 clinical analyzer using the Cholesterol/HP kit. […]"}, "[3]": {"tested_on": "Immature Sprague-Dawley rats", "assay": "Rat uterotrophic/antiuterotrophic bioassay", "assay_type": "in vivo", "conditions": "daily ip; for Uterine wt mg 100 uG cmpd + 1 uG 17β-estradiol: 100 uG compound + 1 uG 17β-estradiol; for Uterine wt mg 100 uG cmpd: 100 uG compound, immature female rats, uterine wet weight", "experimental": "Method No. 19 Rat Uterotrophic/Antiuterotrophic Bioassay\nThe estrogenic and antiestrogenic properties of the compounds were determined in an immature rat uterotrophic assay (4 day) that (as described previously by L. J. Black and R. L. Goode, Life Sciences, 26, 1453(1980)). Immature Sprague-Dawley rats (female, 18 days old) were tested in groups of six. […] On day 4 the animals were sacrificed by CO2 asphyxiation and their uteri were removed and stripped of excess lipid, any fluid removed and the wet weight determined. A small section of one horn was submitted for histology and the remainder used to isolate total RNA in order to evaluate complement component 3 gene expression."}, "[4]": {"target": "T1, estrogen receptor (Homo sapiens, UniProt P03372)", "T1 sequence (P03372 1-595)": "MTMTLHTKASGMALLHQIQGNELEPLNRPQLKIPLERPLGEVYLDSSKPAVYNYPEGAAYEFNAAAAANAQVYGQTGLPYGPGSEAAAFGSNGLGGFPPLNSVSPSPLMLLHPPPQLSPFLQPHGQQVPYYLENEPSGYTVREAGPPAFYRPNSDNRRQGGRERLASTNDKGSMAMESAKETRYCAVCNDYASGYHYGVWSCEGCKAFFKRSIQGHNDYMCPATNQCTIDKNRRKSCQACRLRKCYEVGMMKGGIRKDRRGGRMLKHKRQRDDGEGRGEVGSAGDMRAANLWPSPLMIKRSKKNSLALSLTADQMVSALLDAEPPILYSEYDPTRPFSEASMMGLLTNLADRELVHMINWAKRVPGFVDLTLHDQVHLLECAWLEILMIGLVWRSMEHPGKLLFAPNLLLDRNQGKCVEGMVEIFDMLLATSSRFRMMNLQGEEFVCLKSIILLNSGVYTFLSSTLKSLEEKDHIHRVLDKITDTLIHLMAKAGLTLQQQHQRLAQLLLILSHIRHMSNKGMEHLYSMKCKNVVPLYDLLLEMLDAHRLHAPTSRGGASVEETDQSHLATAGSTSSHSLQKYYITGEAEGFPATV", "assay": "2X VIT ERE infection (luciferase) assay", "assay_type": "cell-based", "design": "expressed in transfected cells; host or cells: Chinese Hamster Ovary cells (CHO), stably transfected", "conditions": "for Infection Luciferase Activity 1 uM + 17β estradiol: 1 uM compound + 1 nM 17β-estradiol (test for estrogen antagonism); for Infection Luciferase Activity 1 uM: 1 uM compound, percentage of activity as compared to 17β-estradiol", "experimental": "Method No. 18 2X VIT ERE Infection Assay Cell Maintenance and Treatment\nChinese Hamster Ovary cells (CHO) which had been stably transfected with the human estrogen receptor were maintained in DMEM+10% fetal bovine serum (FBS). 48 h prior to treatment the growth medium was replaced with DMEM lacking phenol red +10% dextran coated charcoal stripped FBS (treatment medium). Cells were plated at a density of 5000 cells/well in 96-well plates containing 200 µL of medium/well.\nReporter DNA (Promega plasmid pGL2 containing two tandem copies of the vitellogenin ERE in front of the minimal thymidine kinase promoter driving the luciferase gene) was combined with the B-galactosidase expression plasmid pCH110 (Pharmacia) and carrier DNA (pTZ18U) in the following ratio:\n20 uL of this mixture was added to each well of cells and remained on the cells for 16 h. […] Each treatment condition was performed on 8 wells (n=8) which were incubated for 24 h prior to the luciferase assay.\nAfter removing the PBS, 25 uL of Promega lysis buffer was added to each well and allowed to stand at room temperature for 15 min, followed by 15 min at −80° C. and 15 min at 37° C. 20 uL of lysate was transferred to an opaque 96 well plate for luciferase activity evaluation and the remaining lysate (5 uL) was used for the B-galactosidase activity evaluation (normalize transfection). The luciferan substrate (Promega) was added in 100 uL aliquots to each well automatically by the luminometer and the light produced (relative light units) was read 10 seconds after addition.\nTo the remaining 5 uL of lysate 45 uL of PBS was added. Then 50 uL of Promega B-galactosidase 2× assay buffer was added, mixed well and incubated at 37° C. for 1 hour. A plate containing a standard curve (0.1 to 1.5 milliunits in triplicate) was set up for each experimental run. The plates were analyzed on a Molecular Devices spectrophotometric plate reader at 410 nm. The optical densities for the unknown were converted to milliunits of activity by mathematical extrapolation from the standard curve.\nThe luciferase data was generated as relative light units (RLUs) accumulated during a 10 second measurement and automatically transferred to a JMP (SAS Inc) file where background RLUs were subtracted. The B-galactosidase values were automatically imported into the file and these values were divided into the RLUs to normalize the data. The mean and standard deviations were determined from a n=8 for each treatment. […] These techniques are described by Tzukerman, M. T., Esty, A., Santiso-Mere, D., Danielian, P., Parker, M. G., Stein, R. B., Pike, J. W. and McDonnel, D. P. (1994)."}, "[5]": {"target": "T1, estrogen receptor", "assay": "In vitro estrogen receptor binding assay ([3H]-17β-estradiol competition)", "design": "expressed in transfected cells; host or cells: CHO cells (100,000 g cytosol)", "conditions": "read-out: Receptor Binding IC50's", "experimental": "In Vitro Estrogen Receptor Binding Assay\nCHO cells overexpressing the estrogen receptor were grown in 150 mm^2 dishes in DMEM+10% dextran coated charcoal, stripped fetal bovine serum. The plates were washed twice with PBS and once with 10 mM Tris-HCl, pH 7.4, 1 mM EDTA. Cells were harvested by scraping the surface and then the cell suspension was placed on ice. Cells were disrupted with a hand-held motorized tissue grinder using two, 10-second bursts. […] The cytosol was then frozen and stored at −80° C. Protein concentration of the cytosol was estimated using the BCA assay with reference standard protein.\n100 uG/100 uL of the receptor preparation was aliquoted per well. […] The plate was incubated at room temperature for 2.5 h. […] 200 uL of the supernatant solution was then removed for scintillation counting. Samples were counted to 2% or 10 minutes, whichever occurs first. […] Also, wells containing radioactivity but no cytosol were processed with charcoal to estimate unremovable DPM of [^3H]\nCounts per minute (CPM) of radioactivity were automatically converted to disintegrated per minute (DPM) by the Beckman LS 7500 Scintillation Counter using a set of quenched standards to generate a H No. for each sample.\nFor the generation of IC50 curves, % binding is plotted vs compound. […] For a description of these methods, see Hulme, E. C., ed. […] Receptor-Ligand Interactions: A Practical Approach. IRL Press, New York. (see especially chapter 8)."}}, "note": "pEC50, pIC50: −log10 of the molar value.", "data": [{"smiles": "C[C@]12CC[C@@H]3c4ccc(O)cc4CC[C@H]3[C@@H]1CC[C@H]2O", "note": "[17α-estradiol]", "values": [{"measurement": "pEC50", "setting": "[1]", "result": 8.85}]}, {"smiles": "C[C@]12CC[C@@H]3c4ccc(O)cc4CC[C@H]3[C@@H]1CC[C@@H]2O", "note": "[17β-estradiol]", "values": [{"measurement": "Cholesterol", "setting": "[2]", "result": "95.5 ± 3.9", "unit": "mg/dL"}, {"measurement": "% Activation", "setting": "[1]", "result": 100, "unit": "%"}, {"measurement": "pEC50", "setting": "[1]", "result": 10.52}]}, {"smiles": "Cc1c(-c2ccc(O)cc2)n(Cc2ccc(OCCN3CCCCCC3)cc2)c2ccc(O)cc12", "note": "[Example No. 98, 1-[4-(2-Azepan-1-yl-ethoxy)-benzyl]-2-(4-hydroxy-phenyl)-3-methyl-1H-indol-5-ol]", "values": [{"measurement": "% Activation with 1 nM 17β-estradiol", "setting": "[1]", "result": "activity (1% with 1 nM 17β-estradiol)"}]}, {"smiles": "Cc1c(-c2ccc(O)cc2)n(Cc2ccc(OCCN(C)C)cc2)c2ccc(O)cc12", "note": "[Example No. 100, 2-(4-Hydroxy-phenyl)-3-methyl-1-[4-(2-dimethyl-1-yl-ethoxy)-benzyl]-1H-indol-5-ol]", "values": [{"measurement": "Uterine wt mg 100 uG cmpd + 1 uG 17β-estradiol", "setting": "[3]", "result": 68.7, "unit": "mg"}, {"measurement": "Uterine wt mg 100 uG cmpd", "setting": "[3]", "result": 59.9, "unit": "mg"}]}, {"smiles": "Cc1c(-c2ccccc2)n(Cc2ccc(OCCN3CCCCC3)cc2)c2ccccc12", "note": "[compound 85, 4-{3-Methyl-1-[4-(2-piperidin-1-yl-ethoxy)-benzyl]-1H-indole}]", "values": [{"measurement": "Infection Luciferase Activity 1 uM + 17β estradiol", "setting": "[4]", "result": 43, "unit": "%"}, {"measurement": "Infection Luciferase Activity 1 uM", "setting": "[4]", "result": "−2", "unit": "%"}, {"measurement": "Uterine wt mg 100 uG cmpd + 1 uG 17β-estradiol", "setting": "[3]", "result": 92.4, "unit": "mg"}, {"measurement": "Uterine wt mg 100 uG cmpd", "setting": "[3]", "result": 41.1, "unit": "mg"}]}, {"smiles": "CCN(CC)CCOc1ccc(Cn2c(-c3ccc(O)cc3)c(C)c3cc(O)ccc32)cc1", "note": "[compound 101, 2-(4-Hydroxy-phenyl)-3-methyl-1-[4-(2-diethyl-1-yl-ethoxy)-benzyl]-1H-indol-5-ol]", "values": [{"measurement": "Uterine wt mg 100 uG cmpd + 1 uG 17β-estradiol", "setting": "[3]", "result": 71.0, "unit": "mg"}, {"measurement": "Uterine wt mg 100 uG cmpd", "setting": "[3]", "result": 65.1, "unit": "mg"}]}, {"smiles": "Cc1c(-c2ccc(OC3CCCC3)cc2)n(Cc2ccc(OCCN3CCCCC3)cc2)c2ccc(O)cc12", "note": "[compound 122, 2-(4-Cyclopenyloxy-phenyl)-3-methyl-1-[4-(2-piperidin-1-yl-ethoxy)-benzyl]-1H-indol-5-ol]", "values": [{"measurement": "Infection Luciferase Activity 1 uM + 17β estradiol", "setting": "[4]", "result": 5, "unit": "%"}, {"measurement": "Infection Luciferase Activity 1 uM", "setting": "[4]", "result": 1, "unit": "%"}, {"measurement": "pIC50", "setting": "[5]", "result": 7.10}, {"measurement": "Uterine wt mg 100 uG cmpd + 1 uG 17β-estradiol", "setting": "[3]", "result": 38.7, "unit": "mg"}, {"measurement": "Uterine wt mg 100 uG cmpd", "setting": "[3]", "result": 46.7, "unit": "mg"}]}, {"smiles": "O=C(c1ccc(OCCN2CCCCC2)cc1)c1c(-c2ccc(O)cc2)sc2cc(O)ccc12", "note": "[raloxifene]", "values": [{"measurement": "% Activation with 1 nM 17β-estradiol", "setting": "[1]", "result": "activity (5% with 1 nM 17β-estradiol)"}]}, {"smiles": "CC/C(=C(\\c1ccccc1)c1ccc(OCCN(C)C)cc1)c1ccccc1", "note": "[tamoxifen]", "values": [{"measurement": "Uterine wt mg 100 uG cmpd", "setting": "[3]", "result": 71.4, "unit": "mg"}, {"measurement": "% Activation with 1 nM 17β-estradiol", "setting": "[1]", "result": "activity (45% with 1 nM 17β-estradiol)"}, {"measurement": "% Activation", "setting": "[1]", "result": 0, "unit": "%"}]}]}
